Measured values: patent publication US20210038587A1, “METHODS AND COMPOSITIONS FOR TREATING NON-ERK MAPK PATHWAY INHIBITOR-RESISTANT CANCERS” (BIOMED VALLEY DISCOVERIES, INC., priority 2013, published 2021)

Experiments:
Assay in all cases: Reverse Phase Protein Analysis (RPPA)
Type in all cases: cell-based
[1] = test system: AN3Ca; conditions: % change from DMSO (matched cell line)
Experimental: (§1) Control wells were treated with DMSO at 0.1% (v/v) for 6 hours prior to cell lysate generation. Samples were then analyzed using reverse-phase protein microarray technology (Theranostics Health).
(§2) Cell lines with common alterations in BRAF and RAS were assayed: BRAF^V600E mutant lines A375, Colo205, and HT29; KRAS^G12C-mutant cell line MIAPACa-2; KRAS^G13D-mutant cell line HCT116; and AN3Ca with atypical HRAS^F82L mutation. Changes in protein levels are shown as a percentage change from dimethyl sulfoxide (DMSO)-treated parental control (FIG. 32A and Table 23).

[2] = test system: HT29; conditions: % change from DMSO (matched cell line)
Experimental: as §1, §2

[3] = test system: MIAPaCa-2; conditions: MIAPaca2; % change from DMSO (matched cell line)

**Q.** With `O=C(Nc1ccc2[nH]nc(-c3ccncc3)c2c1)[C@@H]1CCN(CC(=O)N2CCN(c3ccc(-c4ncccn4)cc3)CC2)C1` [SCH772984] as the compound, how does the “Avg(p70 S6 Kinase T389 T412)” value [1] read?
**A.** −16.63%

**Q.** What about the “Avg (4ebp1 T70)” value [2] of the same compound?
**A.** −40.58%

**Q.** And the “Avg (Akt S473)” value [2]?
**A.** −22.14%

**Q.** What about the “Avg (Akt)” value [2] of the same compound?
**A.** −16.93%

**Q.** What about the “Avg (Bad S136)” value [2] of the same compound?
**A.** 9.67%

**Q.** What about the “Avg (Bad S155)” value [2] of the same compound?
**A.** −7.98%

**Q.** And the “Avg (Bak)” value [2]?
**A.** 2.78%

**Q.** And the “Avg (Bax)” value [2]?
**A.** −20.59%

**Q.** What about the “Avg (Bcl 2)” value [2] of the same compound?
**A.** −10.01%

**Q.** What about the “Avg (Bcl2 S70)” value [2] of the same compound?
**A.** −11.45%

**Q.** What about the “Avg (Bcl 2 T56)” value [2] of the same compound?
**A.** −17.9%

**Q.** What about the “Avg (Bim)” value [2] of the same compound?
**A.** 0.69%

**Q.** What about the “Avg (CREB S133)” value [2] of the same compound?
**A.** 9.87%

**Q.** And the “Avg (Caspase 3 CL D175)” value [2]?
**A.** −7.9%

**Q.** And the “Avg (Caspase 7 Cl D198)” value [2]?
**A.** 7.02%

**Q.** What about the “Avg (Chk1)” value [2] of the same compound?
**A.** 14.64%

**Q.** And the “Avg (Chk1 S345)” value [2]?
**A.** 19.05%

**Q.** And the “Avg (Cyclin D1)” value [2]?
**A.** −36.66%

**Q.** And the “Avg (ERK 1 2)” value [2]?
**A.** −37%

**Q.** And the “Avg (ERK 1 2 T202 Y204)” value [2]?
**A.** −74.84%

**Q.** And the “Avg (MAK1 S360)” value [2]?
**A.** 1.25%

**Q.** What about the “Avg (Mcl1)” value [2] of the same compound?
**A.** 14.05%

**Q.** And the “Avg (Raptor S792)” value [2]?
**A.** −6.38%

**Q.** And the “Avg (Raptor)” value [2]?
**A.** −12.18%

**Q.** And the “Avg (Rictor)” value [2]?
**A.** −13.03%

**Q.** What about the “Avg (Stat1)” value [2] of the same compound?
**A.** 5.79%

**Q.** What about the “Avg (Stat3)” value [2] of the same compound?
**A.** −2.15%

**Q.** And the “Avg (bad S112)” value [2]?
**A.** −33.9%

**Q.** And the “Avg (c Fos)” value [2]?
**A.** −9.26%

**Q.** What about the “Avg (c Myc)” value [2] of the same compound?
**A.** 13.55%

**Q.** And the “Avg (mTOR S2448)” value [2]?
**A.** −22.65%

**Q.** What about the “Avg (mTOR S2481)” value [2] of the same compound?
**A.** 13.93%

**Q.** And the “Avg (mTOR)” value [2]?
**A.** 9.31%

**Q.** What about the “Avg (p70 S6 Kinase)” value [2] of the same compound?
**A.** −2.36%

**Q.** What about the “Avg (p90 RSK S380)” value [2] of the same compound?
**A.** −53.88%

**Q.** What about the “Avg(S6 Ribo Prot S235 236)” value [2] of the same compound?
**A.** −44.9%

**Q.** What about the “Avg(S6 Ribo Prot S240 244)” value [2] of the same compound?
**A.** −25.73%

**Q.** What about the “Avg(Tuberin TSC2 Y1571)” value [2] of the same compound?
**A.** 13.25%

**Q.** And the “Avg(p70 S6 Kinase S371 S394)” value [2]?
**A.** −20.52%

**Q.** And the “Avg(p70 S6 Kinase T389 T412)” value [2]?
**A.** −9.55%

**Q.** What about the “Avg (4ebp1 T70)” value [3] of the same compound?
**A.** 19.27%

**Q.** And the “Avg (Akt S473)” value [3]?
**A.** 2.84%

**Q.** What about the “Avg (Akt)” value [3] of the same compound?
**A.** 13.47%

**Q.** What about the “Avg (Bad S136)” value [3] of the same compound?
**A.** 8.62%

**Q.** What about the “Avg (Bad S155)” value [3] of the same compound?
**A.** −1.71%

**Q.** And the “Avg (Bak)” value [3]?
**A.** −10.88%

**Q.** And the “Avg (Bax)” value [3]?
**A.** 15.67%

**Q.** What about the “Avg (Bcl 2)” value [3] of the same compound?
**A.** 4.96%

**Q.** What about the “Avg (Bcl2 S70)” value [3] of the same compound?
**A.** −4.23%

**Q.** What about the “Avg (Bcl 2 T56)” value [3] of the same compound?
**A.** −1.98%

**Q.** What about the “Avg (Bim)” value [3] of the same compound?
**A.** 2.08%

**Q.** And the “Avg (CREB S133)” value [3]?
**A.** −6.63%

**Q.** What about the “Avg (Caspase 3 CL D175)” value [3] of the same compound?
**A.** 21.05%

**Q.** What about the “Avg (Caspase 7 Cl D198)” value [3] of the same compound?
**A.** 8.35%

**Q.** And the “Avg (Chk1)” value [3]?
**A.** 12.07%

**Q.** And the “Avg (Chk1 S345)” value [3]?
**A.** 13.39%

**Q.** And the “Avg (Cyclin D1)” value [3]?
**A.** −39.88%

**Q.** What about the “Avg (ERK 1 2)” value [3] of the same compound?
**A.** −23.09%

**Q.** What about the “Avg (ERK 1 2 T202 Y204)” value [3] of the same compound?
**A.** −76.71%

**Q.** What about the “Avg (MAK1 S360)” value [3] of the same compound?
**A.** 2.74%

**Q.** What about the “Avg (Mcl1)” value [3] of the same compound?
**A.** −1.88%

**Q.** And the “Avg (Raptor S792)” value [3]?
**A.** 4.43%

**Q.** And the “Avg (Raptor)” value [3]?
**A.** 17.66%

**Q.** What about the “Avg (Rictor)” value [3] of the same compound?
**A.** −15.15%

**Q.** And the “Avg (Stat1)” value [3]?
**A.** 7.17%

**Q.** What about the “Avg (Stat3)” value [3] of the same compound?
**A.** −9.19%

**Q.** And the “Avg (bad S112)” value [3]?
**A.** −33.07%

**Q.** What about the “Avg (c Fos)” value [3] of the same compound?
**A.** −8.99%

**Q.** What about the “Avg (c Myc)” value [3] of the same compound?
**A.** 2.11%

**Q.** What about the “Avg (mTOR S2448)” value [3] of the same compound?
**A.** −11.48%

**Q.** What about the “Avg (mTOR S2481)” value [3] of the same compound?
**A.** 2.43%

**Q.** What about the “Avg (mTOR)” value [3] of the same compound?
**A.** 1.64%

**Q.** And the “Avg (p70 S6 Kinase)” value [3]?
**A.** −7.51%

**Q.** And the “Avg (p90 RSK S380)” value [3]?
**A.** −38.58%

**Q.** What about the “Avg(S6 Ribo Prot S235 236)” value [3] of the same compound?
**A.** −77.57%

**Q.** And the “Avg(S6 Ribo Prot S240 244)” value [3]?
**A.** −86.61%

**Q.** What about the “Avg(Tuberin TSC2 Y1571)” value [3] of the same compound?
**A.** 8.86%

**Q.** And the “Avg(p70 S6 Kinase S371 S394)” value [3]?
**A.** −40.47%

**Q.** And the “Avg(p70 S6 Kinase T389 T412)” value [3]?
**A.** −50.97%
